Patent US9861616B2, “Methods for treating respiratory diseases and formulations therefor” (priority 2013, dated 2018)
Converted amounts (≈) assume the structure as drawn.

Columns and labels:
P. aeruginosa (PA) = experiment: MIC by microdilution, 36 clinical and laboratory strains with known efflux phenotype; format: cell-based
Description: (§1) MICs of 36 clinical and laboratory strains of PA with known efflux phenotype are measured by microdilution in cation-adjusted Muller-Hinton broth (CA-MHB) or in RPMI medium (commonly used in eukaryotic cell culture). Phe-Arg-β-naphthylamide (PaβN, 50 mg/L) and EGTA 5 mM are used to inhibit efflux pumps and alter OM integrity, respectively. P. aeruginosa strain ATCC PAO1 is used as reference. PA12 is a clinical strain overexpressing the 4 main efflux systems (MexAB, MexCD, MexEF, MexXY), PA403 is a laboratory strain deleted in the genes coding for the 4 efflux systems. A series of reference strains or of clinical isolates for which the expression of genes coding for efflux pumps is known is also used for MICs determinations. MICs are measured by microdilution in MH broth or in RPMI medium (used for eukaryotic cells culture) supplemented with 10% of fetal calf serum, or in MH broth supplemented by increasing amounts of serum. EGTA (5 mM) was used as a chelating agent (disrupting outer membrane integrity) and PaβN (50 mg/L) as an unspecific efflux inhibitor.

P. aeruginosa PA12 = experiment: MIC by microdilution with PaβN or EGTA, clinical isolate overexpressing efflux pumps; format: cell-based; details: Pseudomonas aeruginosa
Description: as §1

IL-8 (CXCL8) release = experiment: LPS-induced IL-8 (CXCL8) release in PMA-differentiated U937 cells (ELISA); format: cell-based, human; details: at 100 μM
Description: Effects of macrolides on lipopolysaccharide (LPS)-induced CXCL8 release in PMA-differentiated U937 cells. […] LPS-induced CXCL8 release was evaluated by ELISA. Values represent means of three experiments±SEM. ^##p<0.01 (vs. non-treatment control), *p<0.05, **p<0.01 (vs. treatment with LPS only).
The human monocytic cell line U937 was obtained from the American Type Culture Collection (ATCC, Rockville, Md.). PBMCs from COPD patients were obtained from Brompton hospital and separated by AccuSPIN (Sigma-Aldrich). Cells were cultured in complete growth medium (RPMI 1640) (Sigma-Aldrich) supplemented with 10% fetal bovine serum (FBS) and 1% L-glutamine at 37° C. in a humidified atmosphere with 5% CO2. U937 cells were differentiated into adherent macrophage-like morphology by exposure to PMA (50 ng/mL) for 48 hrs in complete growth medium. Cell viability was assessed microscopically by trypan blue staining. Cell toxicity was determined by MTT assay as needed. This study was approved by the ethics committee of the Royal Brompton Hospitals, and all subjects gave written informed consent.
TNFα and IL-8 concentrations in the supernatant of cell cultures were determined by sandwich ELISA according to the manufacturer's instructions (R&D Systems Europe, Abingdon, UK).
The results were expressed as the mean±SEM. Comparisons of data in two groups were performed using the Student's t test or the Wilcoxon signed rank test. Multiple comparisons were made by one-way ANOVA with post hoc test (Dunnett's) as appropriate. The difference was considered significant at p<0.05. IC50 values (50% inhibitory concentration) for macrolides for production of cytokines or MMP9 were calculated using Prism 4.0 (GraphPad Software Inc., San Diego, Calif.).

CC[C@H]1OC(=O)[C@H](C)C(=O)[C@H](C)[C@@H](O[C@@H]2O[C@H](C)C[C@H](N(C)C)[C@H]2O)[C@](C)(OC)C[C@@H](C)C(=O)[C@H](C)[C@H]2N(CCCCn3cnc(-c4cccnc4)c3)C(=O)O[C@]12C [TEL, telithromycin]
MIC (P. aeruginosa (PA); strain 1, efflux AB+, MHB): 128 µg/mL (≈ 158 µM) | MIC (P. aeruginosa (PA); strain 1, efflux AB+, RPMI): 4 µg/mL (≈ 4.93 µM) | MIC (P. aeruginosa (PA); strain 2, efflux CD+, MHB): 256 µg/mL (≈ 315 µM) | MIC (P. aeruginosa (PA); strain 2, efflux CD+, RPMI): 16 µg/mL (≈ 19.7 µM) | MIC (P. aeruginosa (PA); strain 3, efflux EF+, MHB): 64 µg/mL (≈ 78.8 µM) | MIC (P. aeruginosa (PA); strain 3, efflux EF+, RPMI): 0.25 µg/mL (≈ 0.308 µM) | MIC (P. aeruginosa (PA); strain 4, efflux XY+, MHB): 128 µg/mL (≈ 158 µM) | MIC (P. aeruginosa (PA); strain 4, efflux XY+, RPMI): 4 µg/mL (≈ 4.93 µM) | MIC (P. aeruginosa (PA); strain 11, efflux AB + CD+, MHB): 64 µg/mL | MIC (P. aeruginosa (PA); strain 11, efflux AB + CD+, RPMI): 1 µg/mL | MIC (P. aeruginosa (PA); strain 12, efflux AB + CD + EF + XY+, MHB): 128 µg/mL | MIC (P. aeruginosa (PA); strain 12, efflux AB + CD + EF + XY+, RPMI): 4 µg/mL | MIC (P. aeruginosa (PA); strain 16, efflux AB + XY+, MHB): 128 µg/mL | MIC (P. aeruginosa (PA); strain 16, efflux AB + XY+, RPMI): 4 µg/mL | MIC (P. aeruginosa (PA); strain 21, efflux AB+, MHB): 64 µg/mL (≈ 78.8 µM) | MIC (P. aeruginosa (PA); strain 21, efflux AB+, RPMI): 2 µg/mL (≈ 2.46 µM) | MIC (P. aeruginosa (PA); strain 22, efflux XY+, MHB): 128 µg/mL (≈ 158 µM) | MIC (P. aeruginosa (PA); strain 22, efflux XY+, RPMI): 2 µg/mL (≈ 2.46 µM) | MIC (P. aeruginosa (PA); strain 40, efflux EF+, MHB): 64 µg/mL (≈ 78.8 µM) | MIC (P. aeruginosa (PA); strain 40, efflux EF+, RPMI): 2 µg/mL (≈ 2.46 µM) | MIC (P. aeruginosa (PA); strain 41, efflux CD+, MHB): 256 µg/mL (≈ 315 µM) | MIC (P. aeruginosa (PA); strain 41, efflux CD+, RPMI): 4 µg/mL (≈ 4.93 µM) | MIC (P. aeruginosa (PA); strain 48, efflux CD + EF + XY+, MHB): 128 µg/mL | MIC (P. aeruginosa (PA); strain 48, efflux CD + EF + XY+, RPMI): 8 µg/mL | MIC (P. aeruginosa (PA); strain 49, efflux CD + EF + XY+, MHB): 128 µg/mL | MIC (P. aeruginosa (PA); strain 49, efflux CD + EF + XY+, RPMI): 4 µg/mL | MIC (P. aeruginosa (PA); strain 63, efflux AB + EF + XY+, MHB): 128 µg/mL | MIC (P. aeruginosa (PA); strain 63, efflux AB + EF + XY+, RPMI): 4 µg/mL | MIC (P. aeruginosa (PA); strain 68, efflux AB + XY+, MHB): 128 µg/mL | MIC (P. aeruginosa (PA); strain 68, efflux AB + XY+, RPMI): 4 µg/mL | MIC (P. aeruginosa (PA); strain 133, efflux EF + XY+, MHB): 128 µg/mL | MIC (P. aeruginosa (PA); strain 133, efflux EF + XY+, RPMI): 4 µg/mL | MIC (P. aeruginosa (PA); strain 156, efflux EF + XY+, MHB): 128 µg/mL | MIC (P. aeruginosa (PA); strain 156, efflux EF + XY+, RPMI): 2 µg/mL | MIC (P. aeruginosa (PA); strain 168B, efflux CD + XY+, MHB): 256 µg/mL | MIC (P. aeruginosa (PA); strain 168B, efflux CD + XY+, RPMI): 4 µg/mL | MIC (P. aeruginosa (PA); strain 207, efflux AB + EF + XY+, MHB): 128 µg/mL | MIC (P. aeruginosa (PA); strain 207, efflux AB + EF + XY+, RPMI): 4 µg/mL | MIC (P. aeruginosa (PA); strain 266B, efflux AB + CD+, MHB): 256 µg/mL | MIC (P. aeruginosa (PA); strain 266B, efflux AB + CD+, RPMI): 4 µg/mL | MIC (P. aeruginosa (PA); strain 333A, efflux AB + EF+, MHB): 64 µg/mL | MIC (P. aeruginosa (PA); strain 333A, efflux AB + EF+, RPMI): 2 µg/mL | MIC (P. aeruginosa (PA); strain 335, efflux AB + EF+, MHB): 128 µg/mL | MIC (P. aeruginosa (PA); strain 335, efflux AB + EF+, RPMI): 4 µg/mL | MIC (P. aeruginosa (PA); strain 391, efflux EF−, MHB): 64 µg/mL (≈ 78.8 µM) | MIC (P. aeruginosa (PA); strain 391, efflux EF−, RPMI): 2 µg/mL (≈ 2.46 µM) | MIC (P. aeruginosa (PA); strain 392, efflux CD−, MHB): 32 µg/mL (≈ 39.4 µM) | MIC (P. aeruginosa (PA); strain 392, efflux CD−, RPMI): 0.5 µg/mL (≈ 0.616 µM) | MIC (P. aeruginosa (PA); strain 394, efflux XY−, MHB): 64 µg/mL (≈ 78.8 µM) | MIC (P. aeruginosa (PA); strain 394, efflux XY−, RPMI): 1 µg/mL (≈ 1.23 µM) | MIC (P. aeruginosa (PA); strain 395, efflux HI−, MHB): 32 µg/mL (≈ 39.4 µM) | MIC (P. aeruginosa (PA); strain 395, efflux HI−, RPMI): 2 µg/mL (≈ 2.46 µM) | MIC (P. aeruginosa (PA); strain 396, ompH−, MHB): 16 µg/mL (≈ 19.7 µM) | MIC (P. aeruginosa (PA); strain 396, ompH−, RPMI): 0.25 µg/mL (≈ 0.308 µM) | MIC (P. aeruginosa (PA); strain 397, efflux AB−, MHB): 8 µg/mL (≈ 9.85 µM) | MIC (P. aeruginosa (PA); strain 397, efflux AB−, RPMI): 0.03 µg/mL (≈ 0.0369 µM) | MIC (P. aeruginosa (PA); strain 398, efflux CD−, MHB): 8 µg/mL (≈ 9.85 µM) | MIC (P. aeruginosa (PA); strain 398, efflux CD−, RPMI): 0.25 µg/mL (≈ 0.308 µM) | MIC (P. aeruginosa (PA); strain 399, efflux AB − EF−, MHB): 4 µg/mL (≈ 4.93 µM) | MIC (P. aeruginosa (PA); strain 399, efflux AB − EF−, RPMI): 0.25 µg/mL (≈ 0.308 µM) | MIC (P. aeruginosa (PA); strain 400, efflux XY−, MHB): 8 µg/mL (≈ 9.85 µM) | MIC (P. aeruginosa (PA); strain 400, efflux XY−, RPMI): 0.25 µg/mL (≈ 0.308 µM) | MIC (P. aeruginosa (PA); strain 401, ompH−, MHB): 4 µg/mL (≈ 4.93 µM) | MIC (P. aeruginosa (PA); strain 401, ompH−, RPMI): 1 µg/mL (≈ 1.23 µM) | MIC (P. aeruginosa (PA); strain 403, efflux AB − CD − EF − XY−, MHB): 4 µg/mL (≈ 4.93 µM) | MIC (P. aeruginosa (PA); strain 403, efflux AB − CD − EF − XY−, RPMI): 0.5 µg/mL (≈ 0.616 µM) | MIC (P. aeruginosa (PA); strain 405, efflux AB − CD − EF − XY−, MHB): 8 µg/mL (≈ 9.85 µM) | MIC (P. aeruginosa (PA); strain 405, efflux AB − CD − EF − XY−, RPMI): 0.25 µg/mL (≈ 0.308 µM) | MIC (P. aeruginosa (PA); strain 434, efflux AB + CD + XY+, MHB): 128 µg/mL | MIC (P. aeruginosa (PA); strain 434, efflux AB + CD + XY+, RPMI): 4 µg/mL | MIC (P. aeruginosa (PA); strain PAO1, REFERENCE, MHB): 256 µg/mL (≈ 315 µM) | MIC (P. aeruginosa (PA); strain PAO1, REFERENCE, RPMI): 2 µg/mL (≈ 2.46 µM) | MIC (P. aeruginosa PA12; PA12, PA12, CA-MHB, EGTA 5 mM): 32 µg/mL (≈ 39.4 µM) | MIC (P. aeruginosa PA12; PA12, PA12, CA-MHB, PaβN 50 mg/L): 4 µg/mL (≈ 4.93 µM) | MIC (P. aeruginosa PA12; PA12, PA12, CA-MHB, control conditions (CT)): 128 µg/mL (≈ 158 µM) | MIC (P. aeruginosa PA12; PA12, PA12, RPMI, EGTA 5 mM): 1 µg/mL (≈ 1.23 µM) | MIC (P. aeruginosa PA12; PA12, PA12, RPMI, PaβN 50 mg/L): 4 µg/mL (≈ 4.93 µM) | MIC (P. aeruginosa PA12; PA12, PA12, RPMI, control conditions (CT)): 4 µg/mL (≈ 4.93 µM) | IC50 (IL-8 (CXCL8) release; Homo sapiens, U-937, read-out: IC50, LPS-induced IL-8 release: NE at 100 μM, U937 cells): > 100 µM | effect on CXCL8 production (IL-8 (CXCL8) release): did not inhibit
